“Also recorded” adds a separate entry of the source.

What all share (format): physicochemical
A short description of data set [1]: Slurry experiment in water (stirred 3 days at room temperature, XRD). To be noted: stirred in water at room temperature for 3 days, by XRD. The procedure:
(§1) Instruments and characterization methods: • X-ray powder diffraction (XRPD): performed on Bruder D8 Advance diffractometer. The samples were tested at room temperature under the following conditions: scan range 3-40° 2θ, step size 0.02° 2θ, and speed 0.2 s/step.

A short description of data set [2]: Phase and chemical stability experiments (10 days storage, XRD and purity). The following applies: for Form (10 days test results): by XRD; for crystalline form after storage / purity change after storage: 10 days at 60° C. dry condition and 40° C./75% RH condition. The protocol: as §1
The nature of data set [3]: Dynamic vapor sorption / isothermal sorption. The procedure:
Dynamic vapor sorption data and isothermal sorption data were collected on TA Instruments Q5000 TGA. Method: place 1 mg to 10 mg sample into a platinum pan; the weight change of the sample during the change in relative humidity from 0% to 80% to 0% was measured.

With `Cn1cncc1[C@@](N)(c1ccc(Cl)cc1)c1ccc2c(c1)c(-c1cccc(Cl)c1)cc(=O)n2C` [Form A, (R)-6-(amino(4-chlorophenyl)(1-methyl-1H-imidazol-5-yl)methyl)-4-(3-chlorophenyl)-1-methyl-2(1H)-quinolinone, reference compound], the “Test results: crystalline form after stirring in water” value (from here on “Test results: crystalline form”) in data set [1] is listed as “transformed to tipifanib Form I”; in data set [1] (listed as Tipifarnib Form A), “Tipifarnib Form I”.

For `Cn1cncc1[C@@](N)(c1ccc(Cl)cc1)c1ccc2c(c1)c(-c1cccc(Cl)c1)cc(=O)n2C` [Form I, (R)-6-(amino(4-chlorophenyl)(1-methyl-1H-imidazol-5-yl)methyl)-4-(3-chlorophenyl)-1-methyl-2(1H)-quinolinone], in data set [2] (40° C./75% RH), the “Purity (%) (10 days test results)” value stood at 99.61% and the “Form (10 days test results)” value is on record as “Tipifarnib Form I”. Besides, in data set [2] (60° C./drying), the “Purity (%) (10 days test results)” value is on record as 99.72% and the “Form (10 days test results)” value is listed as “Tipifarnib Form I”. In data set [2], the “crystalline form after storage” value is recorded as “remained its original form; also recorded: remained their original forms” and the “purity change after storage” value was “essentially did not change; also recorded: essentially did not decrease”. Also, the “Test results: crystalline form” value in data set [1] is on record as “remain unchanged”. For the same compound, the “Test results: crystalline form” value in data set [1] (listed as Tipifamib Form I) is “Tipifamib Form I”. Moreover, in data set [3] (between 20 to 80% RH), the “weight change (isothermal sorption plot)” value is “less than 0.2%”. Besides, in data set [3] (isothermal sorption plot, 20 to 80% RH), the hygroscopicity result was “not hygroscopic”.

On to `Cn1cncc1[C@@](N)(c1ccc(Cl)cc1)c1ccc2c(c1)c(-c1cccc(Cl)c1)cc(=O)n2C` [Form II, (R)-6-(amino(4-chlorophenyl)(1-methyl-1H-imidazol-5-yl)methyl)-4-(3-chlorophenyl)-1-methyl-2(1H)-quinolinone], for which, in data set [2] (40° C./75% RH), the “Purity (%) (10 days test results)” value is 99.86% and the “Form (10 days test results)” value is given as “Tipifarnib Form II”. Also, in data set [2] (60° C./drying), the “Purity (%) (10 days test results)” value was determined as 99.84% and the “Form (10 days test results)” value is listed as “Tipifarnib Form II”. Further, in data set [2], the “crystalline form after storage” value is “remained their original forms; also recorded: remained its original form” and the “purity change after storage” value was “essentially did not decrease; also recorded: essentially did not change”. Moreover, the “Test results: crystalline form” value in data set [1] was “remained unchanged”. The “Test results: crystalline form” value in data set [1] (listed as Tipifarnib Form II) is “Tipifarnib Form II”.

On to `Cn1cncc1[C@@](N)(c1ccc(Cl)cc1)c1ccc2c(c1)c(-c1cccc(Cl)c1)cc(=O)n2C` [Form III, (R)-6-(amino(4-chlorophenyl)(1-methyl-1H-imidazol-5-yl)methyl)-4-(3-chlorophenyl)-1-methyl-2(1H)-quinolinone], for which the “Purity (%) (10 days test results)” value in data set [2] (40° C./75% RH) and in data set [2] (60° C./drying) was 99.80% each time. Moreover, the “Form (10 days test results)” value in data set [2] (40° C./75% RH) and in data set [2] (60° C./drying) was “Tipifarnib Form III” in each case. In addition, in data set [2], the “crystalline form after storage” value is listed as “remained their original forms; also recorded: remained its original form”. Moreover, the “purity change after storage” value in data set [2] is given as “essentially did not decrease; also recorded: essentially did not change”. In addition, the “Test results: crystalline form” value in data set [1] is “remained unchanged”; in data set [1] (listed as Tipifarnib Form III), “Tipifarnib Form III”.

Regarding `Cn1cncc1[C@@](N)(c1ccc(Cl)cc1)c1ccc2c(c1)c(-c1cccc(Cl)c1)cc(=O)n2C` [Form IV, (R)-6-(amino(4-chlorophenyl)(1-methyl-1H-imidazol-5-yl)methyl)-4-(3-chlorophenyl)-1-methyl-2(1H)-quinolinone], the figures for the “Purity (%) (10 days test results)” value in data set [2] (40° C./75% RH) and in data set [2] (60° C./drying) were 99.73% and 99.85%, respectively. The “Form (10 days test results)” value in data set [2] (40° C./75% RH) and in data set [2] (60° C./drying) was “Tipifarnib Form IV” in each case. In data set [2], the “crystalline form after storage” value is given as “remained their original forms; also recorded: remained its original form”. The “purity change after storage” value in data set [2] was “essentially did not decrease; also recorded: essentially did not change”. For the same compound, the entries for the “Test results: crystalline form” value in data set [1] and in data set [1] (listed as Tipifarnib Form IV) were “remained unchanged” and “Tipifarnib Form IV”, respectively.

(Values after patent publication US10954210B2, “Crystal form of tipifarnib and preparation method and pharmaceutical composition thereof” (Hangzhou SoliPharma Co., Ltd., priority 2016, dated 2021).)
